Data from patent US7470680B2, “Constrained compounds as CGRP-receptor antagonists” (Bristol-Myers Squibb Company, priority 2006, dated 2008).

Columns and labels:
CGRP receptor [1] = target: T1, CGRP receptor (Homo sapiens, UniProt O60894+Q16602); experiment: CGRP radioligand binding assay ([125I]-CGRP displacement, SK-N-MC homogenate); design: endogenous in cells; host or cells: SK-N-MC cells (homogenate/membrane pellet); conditions: displacement of [125I]-CGRP, SK-N-MC membranes
Description: CGRP Binding Assay. Tissue Culture. SK-N-MC cells were grown at 37° C. in 5% CO2 as a monolayer in medium consisting of MEM with Earle's salts and L-glutamine (Gibco) supplemented with 10% fetal bovine serum (Gibco). Cell Pellets. The cells were rinsed twice with phosphate-buffered saline (155 mM NaCl, 3.3 mM Na2HPO4, 1.1 mM KH2PO4, pH 7.4), and incubated for 5-10 min. at 4° C. in hypotonic lysis buffer consisting of 10 mM Tris (pH 7.4) and 5 mM EDTA. The cells were transferred from plates to polypropylene tubes (16×100 mm) and homogenized using a polytron. Homogenates were centrifuged at 32,000×g for 30 min. The pellets were resuspended in cold hypotonic lysis buffer with 0.1% mammalian protease inhibitor cocktail (Sigma) and assayed for protein concentration. The SK-N-MC homogenate was then aliquoted and stored at −80° C. until needed.
Radioligand Binding Assay. The compounds of invention were solubilized and carried through serial dilutions using 100% DMSO. Aliquots from the compound serial dilutions were further diluted 25 fold into assay buffer (50 mM Tris-Cl pH 7.5, 5 mM MgCl2, 0.005% Triton X-100) and transferred (volume 50 μl) into 96 well assay plates. [^125I]-CGRP (Amersham Biosciences) was diluted to 60 pM in assay buffer and a volume of […] was added to each well. SK-N-MC pellets were thawed, diluted in assay buffer with fresh 0.1% mammalian protease inhibitor cocktail (Sigma), and homogenized again. SK-N-MC homogenate (5 μg/well) was added in a volume of 100 μl. The assay plates were then incubated at room temperature for 2 h. Assays were stopped by addition of excess cold wash buffer (20 mM Tris-Cl pH 7.5, 0.1% BSA) immediately followed by filtration over glass fiber filters (Whatman GF/B) previously soaked in 0.5% PEI. Non-specific binding was defined with 1 μM beta-CGRP. Protein bound radioactivity was determined using a gamma or scintillation counter. The IC50 was defined as the concentration of a compound of invention required to displace 50% of radioligand binding.

CGRP receptor [2] = target: T1, CGRP receptor; experiment: Cyclic AMP functional antagonism assay in SK-N-MC cells; assay type: cell-based; design: SK-N-MC cells that endogenously express the human CGRP receptor; endogenous in cells; host or cells: SK-N-MC cells; conditions: Table 2; inhibition of 0.3 nM CGRP-induced cAMP in SK-N-MC cells; read-out: cAMP Function IC50
Description: Cyclic AMP Functional Antagonism Assay. Antagonism of the compounds of invention was determined by measuring the formation of cyclic AMP (adenosine 3′5′-cyclic monophosphate) in SK-N-MC cells that endogenously express the human CGRP receptor. CGRP receptor complex is coupled with Gs protein and CGRP binding to this complex leads to the cyclic AMP production via Gs-dependent activation of an adenylate cyclase (Juaneda C. et al., TiPS, 2000; 21:432-438). Consequently, CGRP receptor antagonists inhibit CGRP—induced cyclic AMP formation in SK-N-MC cells (Doods H, et al., Br J Pharmacol, 2000; 129(3):420-423). For cyclic AMP measurements SK—N-MC cells were incubated with 0.3 nM CGRP alone or in the presence of various concentrations of the compounds of invention for 30 min at room temperature. Compounds of invention were pre-incubated with SK—N-MC cells for 15 min before the addition of CGRP to allow receptor occupancy (Edvinsson et al., Eur J Pharmacol, 2001, 415:39-44). Cyclic AMP was extracted using the lysis reagent and its concentration was determined by radioimmunoassay using RPA559 cAMP SPA Direct Screening Assay Kit (Amersham Pharmacia Biotech). IC50 values were calculated using Excel fit.

T1 sequence (Q16602 23-461): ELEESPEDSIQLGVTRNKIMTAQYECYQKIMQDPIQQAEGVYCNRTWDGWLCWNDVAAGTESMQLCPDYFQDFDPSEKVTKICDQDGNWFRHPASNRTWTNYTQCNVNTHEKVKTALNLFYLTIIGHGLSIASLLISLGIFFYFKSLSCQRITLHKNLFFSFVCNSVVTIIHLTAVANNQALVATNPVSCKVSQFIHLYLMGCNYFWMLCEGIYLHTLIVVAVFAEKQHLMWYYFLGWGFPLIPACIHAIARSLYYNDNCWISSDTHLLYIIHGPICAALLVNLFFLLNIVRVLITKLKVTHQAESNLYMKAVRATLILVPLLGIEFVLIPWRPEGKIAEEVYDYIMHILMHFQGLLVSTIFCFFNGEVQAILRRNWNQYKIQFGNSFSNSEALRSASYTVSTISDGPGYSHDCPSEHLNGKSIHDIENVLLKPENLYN
T1 sequence (O60894 27-148): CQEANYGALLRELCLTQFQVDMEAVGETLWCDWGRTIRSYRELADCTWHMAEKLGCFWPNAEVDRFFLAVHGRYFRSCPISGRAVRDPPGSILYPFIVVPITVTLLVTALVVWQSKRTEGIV

SMILES	IC50 (CGRP receptor [1]; Table 2) [nM]	IC50 (CGRP receptor [2]) [nM]	IC50 (CGRP receptor [1]; Table 1) [nM]
CC(C)(C)CN1Cc2c(cc(Cl)c3[nH]ncc23)C[C@@H](CC(=O)N2CCC(n3cc(-c4ccccn4)[nH]c3=O)CC2)C1=O	0.01 to 10	0.01 to 10	–
CC(C)(C)CN1Cc2c(cc(Cl)c3[nH]ncc23)C[C@@H](CC(=O)N2CCC(n3cc(-c4ccccc4)[nH]c3=O)CC2)C1=O	0.01 to 10	0.01 to 10	–
CC(C)(C)CN1Cc2c(cc(Cl)c3[nH]ncc23)C[C@@H](CC(=O)N2CCC(N3Cc4ccccc4NC3=O)CC2)C1=O	0.01 to 10	0.01 to 10	–
CC(C)(C)CN1Cc2c(cc(Cl)c3[nH]ncc23)C[C@@H](CC(=O)N2CCC3(CC2)NC(=O)Nc2ccccc23)C1=O	0.01 to 10	0.01 to 10	–
CC(C)(C)CN1Cc2c(cc(Cl)c3[nH]ncc23)C[C@@H](CC(=O)N2CCC(N3Cc4cccc(F)c4NC3=O)CC2)C1=O	0.01 to 10	0.01 to 10	–
O=C(N[C@@H]1Cc2cc(Cl)c3[nH]ncc3c2CN(Cc2ccccc2)C1=O)N1CCC(N2Cc3ccccc3NC2=O)CC1	0.01 to 10	0.01 to 10	–
CC(C)(C)CN1Cc2c(cc(Cl)c3[nH]ncc23)C[C@@H](NC(=O)N2CCC(N3Cc4ccccc4NC3=O)CC2)C1=O	0.01 to 10	0.01 to 10	–
O=C(C[C@@H]1Cc2cc(Cl)c3[nH]ncc3c2CN(Cc2ccncc2)C1=O)N1CCC(c2cc3ccccc3[nH]c2=O)CC1	0.01 to 10	0.01 to 10	–
CC(C)(C)CN1Cc2c(cc(Cl)c3[nH]ncc23)C[C@@H](CC(=O)N2CCC(N3Cc4ccccc4CC3=O)CC2)C1=O	0.01 to 10	0.01 to 10	–
CC(C)(C)CN1Cc2c(cc(Cl)c3[nH]ncc23)C[C@@H](CC(=O)N2CCC(c3cc4ccccc4[nH]c3=O)CC2)C1=O	0.01 to 10	0.01 to 10	–
CC(C)(C)CN1Cc2c(ccc3[nH]ncc23)CC(NC(=O)N2CCC(N3Cc4ccccc4NC3=O)CC2)C1=O (centres unmarked)	0.01 to 10	0.01 to 10	–
O=C(NC1Cc2ccc3[nH]ncc3c2CN(CCc2ccncc2)C1=O)N1CCC(N2Cc3ccccc3NC2=O)CC1 (centres unmarked)	0.01 to 10	0.01 to 10	–
CCCn1ncc2c3c(cc(Cl)c21)C[C@@H](CC(=O)N1CCC(N2CCc4ccccc4NC2=O)CC1)C(=O)N(CC(F)(F)F)C3	–	–	10 to 100
O=C(O[C@@H]1Cc2cc(Cl)c3[nH]ncc3c2CN(CC(F)(F)F)C1=O)N1CCC(N2CCc3ccccc3NC2=O)CC1	–	–	0.01 to 10
O=C(C[C@@H]1Cc2cc(Cl)c3[nH]nc(Cl)c3c2CN(CC(F)(F)F)C1=O)N1CCC(N2CCc3ccccc3NC2=O)CC1	–	–	0.01 to 10
CC(C)(C)CN1Cc2c(cc(Cl)c3[nH]ncc23)C[C@@H](CC(=O)N2CCC(c3cc4scc(Cl)c4[nH]c3=O)CC2)C1=O (mixture of isomers)	–	–	0.01 to 10
O=C(C[C@@H]1Cc2cc(Cl)c3[nH]ncc3c2CN(Cc2ccncc2)C1=O)N1CCC(N2Cc3cccc(F)c3NC2=O)CC1	0.01 to 10	0.01 to 10	–
O=C(C[C@@H]1Cc2cc(Br)c3[nH]nc(Br)c3c2CN(CC(F)(F)F)C1=O)N1CCC(n2c(=O)[nH]c3ncccc32)CC1	–	–	0.01 to 10
O=C(C[C@@H]1Cc2cc(Br)c3[nH]ncc3c2CN(CC(F)(F)F)C1=O)N1CCC(c2cc3cccnc3[nH]c2=O)CC1	0.01 to 10	–	–
O=C(C[C@@H]1Cc2cc(Cl)c3[nH]ncc3c2CN(CC(F)(F)F)C1=O)N1CCC(n2c(=O)[nH]c3c(F)cccc32)CC1	–	–	0.01 to 10

SMILES	IC50 (CGRP receptor [1]; Table 2) [nM]	IC50 (CGRP receptor [2]) [nM]	IC50 (CGRP receptor [1]; Table 1) [nM]
O=C(C[C@@H]1Cc2cc(Cl)c3[nH]ncc3c2CN(CC(F)(F)F)C1=O)N1CCC(N2Cc3ccccc3NC2=O)CC1	0.01 to 10	–	–
COCn1ncc2c3c(cc(Cl)c21)C[C@@H](CC(=O)N1CCC(N2CCc4ccccc4NC2=O)CC1)C(=O)N(CC(F)(F)F)C3	–	–	10 to 100
O=C(N[C@@H]1Cc2cc3cn[nH]c3cc2CN(Cc2ccccc2)C1=O)N1CCC(N2Cc3ccccc3NC2=O)CC1	0.01 to 10	–	–
CC(C)(C)CN1Cc2c(ccc3[nH]ncc23)C[C@@H](CC(=O)N2CCC(N3Cc4ccccc4NC3=O)CC2)C1=O [drawing 84]	–	0.01 to 10	–
CC(C)(C)CN1Cc2c(cc(Cl)c3[nH]ccc23)C[C@@H](CC(=O)N2CCC(c3cc4sccc4[nH]c3=O)CC2)C1=O	–	–	0.01 to 10
CC(C)(C)CN1Cc2c(cc(Cl)c3[nH]ncc23)C[C@@H](CC(=O)N2CCC(c3cc4ccc(F)cc4[nH]c3=O)CC2)C1=O	0.01 to 10	–	–
CC(C)(C)CCN1Cc2c(ccc3[nH]ncc23)C[C@@H](NC(=O)N2CCC(N3Cc4ccccc4NC3=O)CC2)C1=O	0.01 to 10	0.01 to 10	–
O=C(C[C@@H]1Cc2cc(Cl)c3[nH]ncc3c2CN(Cc2ccncc2)C1=O)N1CCC(n2cc(-c3ccccc3)[nH]c2=O)CC1	0.01 to 10	0.01 to 10	–
CCn1ncc2c3c(cc(Cl)c21)C[C@@H](CC(=O)N1CCC(n2c(=O)[nH]c4ncccc42)CC1)C(=O)N(CC(F)(F)F)C3	–	–	10 to 100
O=C(C[C@@H]1Cc2cc(Cl)c3[nH]ncc3c2CN(Cc2ccncc2)C1=O)N1CCC(N2Cc3ccccc3NC2=O)CC1	0.01 to 10	0.01 to 10	–
O=C(C[C@@H]1Cc2cc(Br)c3[nH]ncc3c2CN(CC(F)(F)F)C1=O)N1CCC(c2cc3ccccc3[nH]c2=O)CC1	0.01 to 10	–	–
O=C(C[C@@H]1Cc2cc(Cl)c3[nH]ncc3c2CN(CC(F)(F)F)C1=O)N1CCC(n2ccn(-c3ccccc3F)c2=O)CC1	–	–	> 1000
CC(C)(C)CN1Cc2c(cc(Cl)c3[nH]ccc23)C[C@@H](CC(=O)N2CCC(c3cc4[nH]ccc4[nH]c3=O)CC2)C1=O	–	–	0.01 to 10
O=C1NC(=O)C(C2CCN(C(=O)C[C@@H]3Cc4cc(Cl)c5[nH]ncc5c4CN(CC(F)(F)F)C3=O)CC2)N1 (some centres unmarked)	–	–	100 to 1000
Cc1cc2c(c3cn[nH]c13)CN(CC(F)(F)F)C(=O)[C@H](CC(=O)N1CCC(c3cc4ccccc4[nH]c3=O)CC1)C2	0.01 to 10	–	–
CC(C)(C)CN1Cc2c(cc(Cl)c3[nH]ncc23)C[C@@H](CC(=O)N2CCC(c3cc4sc(Cl)cc4[nH]c3=O)CC2)C1=O	–	–	0.01 to 10
O=C(C[C@@H]1Cc2cc(Cl)c3[nH]ncc3c2CN(Cc2ncc[nH]2)C1=O)N1CCC(N2Cc3ccccc3NC2=O)CC1	0.01 to 10	0.01 to 10	–
CC(C)(C)CN1Cc2c(cc(Cl)c3[nH]ncc23)C[C@@H](CC(=O)N2CCC(c3cc4sc(Br)cc4[nH]c3=O)CC2)C1=O (mixture of isomers)	–	–	0.01 to 10
COCCN1Cc2c(cc(Br)c3[nH]ncc23)C[C@@H](CC(=O)N2CCC(c3cc4ccccc4[nH]c3=O)CC2)C1=O	0.01 to 10	–	–
